Each structure is given as a SMILES string.

Assay [1] deals with DU145. The experiment in a line: DU145 scattering inhibition. Particulars: Homo sapiens, DU-145, read-out: Potency in cell-based assays DU145 scattering inhibition.
Assay [2] deals with MNNGHOS tumor xenograft. The assay is described as follows: In vivo solid tumor disease model, MNNGHOS tumor xenograft. To be noted: MNNGHOS xenograft in mice, dosed orally at 40 mg/kg in PEG 400/0.1 N HCl in saline (40:60). An excerpt: In Vivo Solid Tumor Disease Model
This test measures the capacity of compounds to inhibit solid tumor growth.
Tumor xenografts are established in the flank of female athymic CDl mice (Charles River Inc.), by subcutaneous injection of 1X10^6 cells/mouse. Once established, tumors are then serially passaged s.c. in nude mice hosts. Tumor fragments from these host animals are used in subsequent compound evaluation experiments. For compound evaluation experiments female nude mice weighing approximately 20 g are implanted s.c. by surgical implantation with tumor fragments of 30 mg from donor tumors. When the tumors are approximately 100 mm^3 in size (˜7-10 days following implantation), the animals are randomized and separated into treatment and control groups. Each group contains 6-8 tumor-bearing mice, each of which is ear-tagged and followed individually throughout the experiment.
Mice are weighed and tumor measurements are taken by calipers three times weekly, starting on Day 1. These tumor measurements are converted to tumor volume by the well-known formula […]. The experiment is terminated when the control tumors reach a size of approximately 1500 mm^3. […] In addition to tumor volumes, body weight of animals is monitored twice weekly for up to 3 weeks. […]

In the case of `COc1cc2nccc(Oc3ccc(NC(=O)N4CCN(c5ccccc5)C4=O)cc3F)c2cc1OC` [Example 2, N-(4-(6,7-Dimethoxyquinolin-4-yloxy)-3-fluorophenyl)-2-oxo-3-phenylimidazolidine-1-carboxamide], the IC50 in assay [1] was 400 nM. In assay [2], the effect on tumors result was “full regression of the tumors” and the tumor growth inhibition came out at 112%.

Source of the values: patent US20080004273A1, “Inhibitors of protein tyrosine kinase activity” (priority 2006, published 2008).
